Patent US10675257B2, “Method of treating cancer with a combination of benzylideneguanidine derivatives and chemotherapeutic agent” (InFlectis BioScience, priority 2015, dated 2020)
“Also recorded” adds a separate entry of the source. Structures can show the parent of a compound that is named as a salt.

Test system: glioblastoma cell line GL261
Assay: GL261 glioblastoma tumor grafted on the chorio-allantoic membrane (CAM) of embryonated chicken eggs, tumor weight at E19
Format: in vivo, chicken embryo (Fertilized White Leghorn eggs)
Conditions: for Tumor weight (mg) (N = 7 to 12) / Tumor weight (mg) (N = 18): after 10 days of treatment; for Effect on GL261 tumor size/weight on the upper CAM, in words: test compound (100 nM) together with temozolomide (500 microM), compared to temozolomide alone or compound alone; for Effect on GL261 tumor size, in words: test compound alone (100 nM)
Method: Fertilized White Leghorn eggs were incubated at 38° C. with 60% relative humidity for 9 days. At this time (E9), the chorio-allantoic membrane (CAM) was dropped by drilling a small hole through the eggshell into the air sac and a 1 cm^2 window was cut in the eggshell above the CAM.
Cultured glioblastoma cell line GL261 were detached by trypsinization, washed with complete medium, labeled and suspended in serum free DMEM. An inoculum of GL261 cells was added onto the CAM of each egg. Eggs were then randomized in 6 groups.
They were then treated during 10 days, every two days (E10, E12, E14, E16, E18), by dropping 100 μl of test compound (100 nM), Temozolomide (500 microM), test compound (100 nM) and Temozolomide (500 microM), or Control (0.02% DMSO) onto the tumor.
At day E19 the upper portion of the CAM was removed, transferred in PBS and the tumors were then carefully cut away from normal CAM tissue. Tumors were then weighted. In parallel, a 1 cm^2 portion of the lower CAM was collected to evaluate the number of nodules, containing expressing cells. The fluorescent nodules were visualized in situ using whole mounts of fixed tissue and flattened between a hollow glass slide and a thick coverslip. In order to number the nodules, a thorough and complete visual scan of the piece of the lower CAM was done using fluorescent microscope.
Glioblastoma cell line GL261 was grafted on the chorio-allantoic membrane (CAM) of Fertilized White Leghorn eggs. The tumors were treated every two days with test compound ([…]), temolozomide (500 microM) or test compound (100 nM) and temozolomide (500 microM). For the control, the tumors were treated with 0.02% DMSO. Between seven (7) to eighteen (18) eggs were treated for each condition.

[1] = combination test compound/Temozolomide 100 nM/500 μM, control 106.65
[2] = test compound alone 100 nM, control (0.02% DMSO) 106.65
[3] = combination test compound/Temozolomide 100 nM/500microM, control 120.5

SMILES | Tumor weight (mg) (N = 7 to 12) [1] | Effect on GL261 tumor size/weight on the upper CAM, in words | Effect on GL261 tumor size, in words | also measured
CC(=O)O.N=C(N)N/N=C/c1ccncc1Cl [Compound 6, 2-[(3-chloropyridin-4-yl)methylidene]hydrazinecarboximidamide Acetate] | 70.45 mg |  |  | Effect on GL261 tumor size/weight on the upper CAM, in words (Acetate): synergistic reduction of GL261 tumor weight; also recorded: synergistic effect to reduce the tumor size; Tumor weight (mg) (N = 7 to 12) [2]: 107.76 mg; Effect on GL261 tumor size, in words (Acetate): no effect on tumor size reduction; also recorded: no effect to reduce the tumor size
Cn1nnc2c(C(N)=O)ncn2c1=O [Temozolomide, 3,4-dihydro-3-methyl-4-oxoimidazo [5,1-d]-as-tetazine-8-carboxamide, reference compound] |  |  |  | Tumor weight (mg) (N = 7 to 12) (Temozolomide alone 500 μM, control (0.02% DMSO) 106.65): 90.17 mg; Tumor weight (mg) (N = 18) (Temozolomide alone 500microM, control (0.02% DMSO) 120.5): 86.3 mg
CCO/N=C(\N)N/N=C/c1ccncc1Cl [Compound 26, 2-[(3-chloropyridin-4-yl)methylidene]-N-ethoxyhydrazinecarboximidamide] | 66.23 mg | further reduction of GL261 tumor weight; also recorded: further reduce the tumor size | display anti-glioma activity by reducing the tumor size | 
CCO/N=C(\N)N/N=C/c1ccccc1Cl [Compound 20, 2-(2-chlorobenzylidene)-N′-ethoxyhydrazinecarboximidamide] | 73.51 mg | further reduction of GL261 tumor weight; also recorded: further reduce the tumor size | display anti-glioma activity by reducing the tumor size | 
C=CCO/N=C(\N)N/N=C/c1ccccc1Cl [Compound 15, 2-(2-chlorobenzylidene)-N′-(prop-2-en-1-yloxy)hydrazine Carboximidamide] | 40.66 mg | synergistic reduction of GL261 tumor weight; also recorded: synergistic effect to reduce the tumor size | reduces the tumor size | Tumor weight (mg) (N = 7 to 12) [2]: 63.44 mg
N/C(=N\OCCO)N/N=C/c1ccccc1Cl [Compound 16, 2-(2-chlorobenzylidene)-N′-(2-hydroxyethoxy)hydrazinecarboximidamide] | 48.11 mg | further reduction of GL261 tumor weight; also recorded: further reduce the tumor size | display anti-glioma activity by reducing the tumor size | 
NC(N)=N/N=C/c1c(Cl)cccc1Cl [Compound 1, 2-(2,6-dichlorobenzylidene)hydrazine carboximidamide, reference compound] |  |  |  | Tumor weight (mg) (N = 18) [3]: 68.3 mg; Tumor weight (mg) (N = 18) (test compound alone 100 nM, control (0.02% DMSO) 120.5): 115 mg
CCCO/N=C(\N)N/N=C/c1c(F)cccc1Cl [Compound 29, 2-(2-chloro-6-fluorobenzylidene)-N′-propoxyhydrazinecarboximidamide] | 54.13 mg | further reduction of GL261 tumor weight; also recorded: further reduce the tumor size | display anti-glioma activity by reducing the tumor size | 
CCCO/N=C(\N)N/N=C/c1ccncc1Cl [Compound 33, 2-[(3-chloropyridin-4-yl)methylidene]-N-propoxyhydrazinecarboximidamide] | 62.42 mg | further reduction of GL261 tumor weight; also recorded: further reduce the tumor size | display anti-glioma activity by reducing the tumor size | 
CCCCO/N=C(\N)N/N=C/c1ccccc1Cl [Compound 28, N′-butoxy-2-(2-chlorobenzylidene)hydrazinecarboximidamide] | 51.33 mg | further reduction of GL261 tumor weight; also recorded: further reduce the tumor size | display anti-glioma activity by reducing the tumor size | 
CCSCCO/N=C(\N)N/N=C/c1ccccc1Cl [Compound 25, 2-(2-chlorobenzylidene)-N-[2-(ethylsulfanyl)ethoxy]hydrazinecarboximidamide] | 43.6 mg |  |  | 
CCCO/N=C(\N)N/N=C/c1ccccc1Cl [Compound 22, 2-(2-chlorobenzylidene)-N-propoxyhydrazinecarboximidamide] |  | synergistic reduction of GL261 tumor weight; also recorded: synergistic effect to reduce the tumor size |  | Tumor weight (mg) (N = 18) [3]: 48.4 mg
CC(C)CCO/N=C(\N)N/N=C/c1ccccc1Cl [Compound 11, Formate Salt] | 67.29 mg |  | reduces the tumor size | Effect on GL261 tumor size/weight on the upper CAM, in words (Formate Salt): synergistic reduction of GL261 tumor weight; also recorded: synergistic effect to reduce the tumor size; Tumor weight (mg) (N = 7 to 12) [2]: 87.63 mg
